In ChEMBL document CHEMBL1201862, “PubChem BioAssay data set” (2004):
The source made the active and inactive calls.

Experiments:
[1] = molecular target: T1, Estrogen receptor (Homo sapiens, UniProt P03372);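 also: potency for inhibiting coactivator peptide recruitment to the receptor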
T1 sequence (P03372 whole entry): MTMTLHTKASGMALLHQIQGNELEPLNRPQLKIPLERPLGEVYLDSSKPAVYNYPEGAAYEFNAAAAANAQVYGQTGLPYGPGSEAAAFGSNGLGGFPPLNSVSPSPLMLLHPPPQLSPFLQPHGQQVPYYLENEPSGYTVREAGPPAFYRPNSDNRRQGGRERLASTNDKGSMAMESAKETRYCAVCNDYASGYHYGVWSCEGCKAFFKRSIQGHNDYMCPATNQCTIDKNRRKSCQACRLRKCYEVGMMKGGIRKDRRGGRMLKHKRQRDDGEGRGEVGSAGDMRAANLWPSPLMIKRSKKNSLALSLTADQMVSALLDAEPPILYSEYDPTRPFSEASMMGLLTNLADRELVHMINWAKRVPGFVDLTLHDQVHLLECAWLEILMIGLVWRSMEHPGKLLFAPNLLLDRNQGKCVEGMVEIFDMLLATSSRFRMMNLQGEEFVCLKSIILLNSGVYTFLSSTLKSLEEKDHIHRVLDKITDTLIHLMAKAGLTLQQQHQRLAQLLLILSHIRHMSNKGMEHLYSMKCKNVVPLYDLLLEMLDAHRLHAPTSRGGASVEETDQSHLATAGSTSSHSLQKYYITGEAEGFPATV

[2] = molecular target: Peroxisome proliferator-activated receptor gamma/Nuclear receptor coactivator 2 (Homo sapiens, UniProt P37231); test: TR-FRET dose response biochemical High Throughput Screening assay for agonists of the steroid receptor coactivator 2 (SRC-2) recruitment by the peroxisome proliferator-activated receptor gamma (PPAR gamma): non-selective agonists. [Related pubchem assays: 1297, 1032 ]; format: functional
[3] = molecular target: Peroxisome proliferator-activated receptor gamma/Nuclear receptor coactivator 3 (Homo sapiens, UniProt P37231); test: TR-FRET dose response biochemical High Throughput Screening assay for agonists of the steroid receptor coactivator 3 (SRC-3) recruitment by the peroxisome proliferator-activated receptor gamma (PPAR gamma): non-selective agonists. [Related pubchem assays: 1301 (Confirmation screen.), 1048 (Primary screen.)]; format: functional
[4] = molecular target: Peroxisome proliferator-activated receptor gamma/Nuclear receptor coactivator 1 (Homo sapiens, UniProt P37231); test: TR-FRET dose response biochemical High Throughput Screening assay for agonists of the steroid receptor coactivator 1 (SRC-1) recruitment by the peroxisome proliferator-activated receptor gamma (PPAR gamma): non-selective agonists. [Related pubchem assays (depositor defined):AID1300, AID1808, AID504735, AID631]; format: protein assay
[5] = molecular target: Cytochrome P450 2D6 (Homo sapiens, UniProt P10635);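 also: CYP2D6 member of a cytochrome P450 panel assay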
[6] = A cytotoxicity screen of small molecule inhibitors of the PhoP region in Salmonella typhi identified in the primary screen. [Related pubchem assays: 1850, 1864, 1985 ]; format: functional
[7] = molecular target: Voltage-dependent T-type calcium channel subunit alpha-1H (Homo sapiens, UniProt O95180); format: functional;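 also: channel activity triggered by adding a high calcium stimulation buffer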
[8] = cells; format: functional
[9] = THP-1 cell cytotoxicity, dose response, cytotoxicity control for non-replicating M. tuberculosis project (AID 489025); format: functional
[10] = molecular target: T2, Short transient receptor potential channel 4 (Mus musculus, UniProt Q9QUQ5); test: calcium entry via TRPC4 opening agents – cell-based, HEK293 TRPC4/mu-opioid, Fluo-4 calcium, dose response (AID 434937); format: functional
T2 sequence (Q9QUQ5 whole entry): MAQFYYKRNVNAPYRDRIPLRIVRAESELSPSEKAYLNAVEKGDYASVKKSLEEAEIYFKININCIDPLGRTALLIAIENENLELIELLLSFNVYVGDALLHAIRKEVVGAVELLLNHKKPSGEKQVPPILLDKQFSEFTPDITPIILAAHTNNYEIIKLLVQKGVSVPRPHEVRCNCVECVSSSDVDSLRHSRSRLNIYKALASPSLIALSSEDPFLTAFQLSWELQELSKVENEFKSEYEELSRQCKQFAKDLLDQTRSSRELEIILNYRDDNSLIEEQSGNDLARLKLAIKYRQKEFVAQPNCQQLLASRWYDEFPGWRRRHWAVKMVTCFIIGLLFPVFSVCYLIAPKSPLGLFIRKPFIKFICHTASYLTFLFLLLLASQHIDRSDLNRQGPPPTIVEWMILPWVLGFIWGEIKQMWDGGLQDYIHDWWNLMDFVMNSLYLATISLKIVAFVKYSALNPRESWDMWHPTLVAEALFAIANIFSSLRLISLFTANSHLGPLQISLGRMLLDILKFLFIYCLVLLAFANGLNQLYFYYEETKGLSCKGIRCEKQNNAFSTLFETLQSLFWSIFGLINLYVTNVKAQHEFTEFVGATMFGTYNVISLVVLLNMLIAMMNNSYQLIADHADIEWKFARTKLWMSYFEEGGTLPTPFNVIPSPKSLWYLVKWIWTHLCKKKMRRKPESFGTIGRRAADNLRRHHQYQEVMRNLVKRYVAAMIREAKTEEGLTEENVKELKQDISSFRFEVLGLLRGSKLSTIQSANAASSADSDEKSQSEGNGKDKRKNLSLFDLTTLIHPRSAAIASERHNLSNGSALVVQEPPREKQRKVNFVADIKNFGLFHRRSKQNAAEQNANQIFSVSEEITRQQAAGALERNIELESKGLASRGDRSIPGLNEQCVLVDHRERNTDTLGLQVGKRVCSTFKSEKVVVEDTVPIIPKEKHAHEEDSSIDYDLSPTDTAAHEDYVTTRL

[11] = HEK-293T cell viability reduction – luminescence, B-cell screen hits, cytotoxicity control for BCR NF-kB inhibitor project, dose response (AID 489021); format: functional, cell-based;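 also: HEK-293T cells carrying an NF-kB luciferase reporter; cells exposed to compound for about 14 hours before viability readout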
[12] = HEK-293T viability loss after treatment – luminescence, T-cell screen hits, cytotoxicity control for TCR NF-kB inhibitor project, dose response (AID 489026); format: functional, cell-based;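 also: cells exposed to compound about 14 hours before the viability readout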
[13] = tested on: Streptococcus; test: GAS UMAA2166 growth inhibition – luminescence, BacTiterGlo, counter-screen for streptokinase expression inhibitor project, dose response (AID 1915); format: functional, organism-based;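 also: potency for reduction of bacterial viability or growth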
[14] = tested on: Streptococcus sp. 'group A'; test: Streptococcus pyogenes SK(-)GAS viability under kanamycin – luminescence, BacTiterGlo, confirmation, counter-screen for streptokinase expression inhibitor project, dose response (AID 1900); format: functional, organism-based
[15] = viability loss of HPDE-C7K cells – cell-based, fluorescence, HTS, primary screen (AID 431); format: functional; conditions: Homo sapiens
[16] = molecular target: T3, Heat shock factor protein 1 (Mus musculus, UniProt P38532); test: enhancement of HSF1-driven luciferase signal – cell-based, NIH3T3, luminescence, dose retest, confirmation (AID 435004); format: functional;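 also: stress induced by proteasome inhibitor MG132 added 30 min after compound; luciferase reporter driven by HSF1 response element in NIH3T3 cells; actives raise luminescence as potentiators of the MG132 stress response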
T3 sequence (P38532 whole entry): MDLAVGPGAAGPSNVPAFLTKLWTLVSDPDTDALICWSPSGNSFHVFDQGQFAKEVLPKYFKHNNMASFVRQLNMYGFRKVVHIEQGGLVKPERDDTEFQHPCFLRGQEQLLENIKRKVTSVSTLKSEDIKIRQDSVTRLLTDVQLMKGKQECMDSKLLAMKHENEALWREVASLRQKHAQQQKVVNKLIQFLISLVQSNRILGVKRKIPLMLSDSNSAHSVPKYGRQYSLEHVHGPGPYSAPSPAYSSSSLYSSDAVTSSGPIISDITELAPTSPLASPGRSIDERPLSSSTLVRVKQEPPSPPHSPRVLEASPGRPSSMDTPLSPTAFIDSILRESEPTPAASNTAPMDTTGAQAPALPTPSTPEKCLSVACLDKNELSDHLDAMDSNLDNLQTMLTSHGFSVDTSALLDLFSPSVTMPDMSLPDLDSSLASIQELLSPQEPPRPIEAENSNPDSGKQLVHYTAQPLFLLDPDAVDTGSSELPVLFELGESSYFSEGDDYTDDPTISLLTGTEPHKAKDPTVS

[17] = HPDE-C7 pancreatic duct cell viability loss – fluorescence, HTS (AID 430); format: functional, cell-based; conditions: Homo sapiens
[18] = molecular target: T4, Endoribonuclease toxin MazF (Escherichia coli K-12, UniProt P0AE70); test: activation of MazEF endoribonuclease cleavage – biochemical, fluorescence, single-stranded RNA substrate, uHTS hits, dose response (AID 588481); format: functional
T4 sequence (P0AE70 whole entry): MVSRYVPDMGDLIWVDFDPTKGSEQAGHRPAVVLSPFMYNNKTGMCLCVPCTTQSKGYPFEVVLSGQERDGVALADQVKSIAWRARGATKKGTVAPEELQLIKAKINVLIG

[19] = tested on: INS1; test: INS-1E survival protection against cytokine death – cell-based, luminescence, retest, dose response (AID 449756); format: functional; conditions: Rattus norvegicus;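 also: cell death triggered by IL-1 beta plus TNF-alpha plus IFN-gamma mixture; protective hits raise ATP signal compared with cytokine alone wells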
[20] = molecular target: T4, Endoribonuclease toxin MazF; test: substrate-only fluorescence increase artefacts – biochemical, single-stranded RNase substrate, counter-screen for MazEF activator project, dose response (AID 588502); format: functional
[21] = molecular target: Eukaryotic translation initiation factor 4E (Mus musculus, UniProt P63073); test: blockers of eIF4G binding by eIF4E – biochemical, TR-FRET, dose response (AID 855); format: functional;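 also: potency for disrupting eIF4E binding to eIF4GI seen as loss of FRET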
[22] = tested on: H9c2; test: cells; format: functional, cell-based; conditions: Rattus norvegicus, H9c2, Myocardium;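 also: confirmatory concentration-response retest of ultra-high-throughput screening hits for modulation of myocardial damage; cell death induced by hydrogen peroxide oxidative stress; compound pretreatment for 60 min then peroxide exposure for 2 h; potency is for protecting the cells against peroxide damage rather than for killing them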
[23] = fluconazole-exposed Candida albicans growth modulators – fluorescence, retest, confirmation (AID 2467); format: functional, cell-based
[24] = NIH-3T3 fibroblast cytotoxicity, dose response, cytotoxicity control, cell-based, fluorescence, Alamar Blue, secondary assay (AID 2327); format: functional;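 also: NIH-3T3 mouse fibroblasts cultured with fluconazole at 8 µg/mL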
[25] = molecular target: Cytochrome P450 3A4 (Homo sapiens, UniProt P08684); conditions: Potency;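 also: confirmatory qHTS run detecting inhibitors and substrates of CYP3A4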

Chain of Voltage-dependent T-type calcium channel subunit alpha-1H (O95180 whole entry): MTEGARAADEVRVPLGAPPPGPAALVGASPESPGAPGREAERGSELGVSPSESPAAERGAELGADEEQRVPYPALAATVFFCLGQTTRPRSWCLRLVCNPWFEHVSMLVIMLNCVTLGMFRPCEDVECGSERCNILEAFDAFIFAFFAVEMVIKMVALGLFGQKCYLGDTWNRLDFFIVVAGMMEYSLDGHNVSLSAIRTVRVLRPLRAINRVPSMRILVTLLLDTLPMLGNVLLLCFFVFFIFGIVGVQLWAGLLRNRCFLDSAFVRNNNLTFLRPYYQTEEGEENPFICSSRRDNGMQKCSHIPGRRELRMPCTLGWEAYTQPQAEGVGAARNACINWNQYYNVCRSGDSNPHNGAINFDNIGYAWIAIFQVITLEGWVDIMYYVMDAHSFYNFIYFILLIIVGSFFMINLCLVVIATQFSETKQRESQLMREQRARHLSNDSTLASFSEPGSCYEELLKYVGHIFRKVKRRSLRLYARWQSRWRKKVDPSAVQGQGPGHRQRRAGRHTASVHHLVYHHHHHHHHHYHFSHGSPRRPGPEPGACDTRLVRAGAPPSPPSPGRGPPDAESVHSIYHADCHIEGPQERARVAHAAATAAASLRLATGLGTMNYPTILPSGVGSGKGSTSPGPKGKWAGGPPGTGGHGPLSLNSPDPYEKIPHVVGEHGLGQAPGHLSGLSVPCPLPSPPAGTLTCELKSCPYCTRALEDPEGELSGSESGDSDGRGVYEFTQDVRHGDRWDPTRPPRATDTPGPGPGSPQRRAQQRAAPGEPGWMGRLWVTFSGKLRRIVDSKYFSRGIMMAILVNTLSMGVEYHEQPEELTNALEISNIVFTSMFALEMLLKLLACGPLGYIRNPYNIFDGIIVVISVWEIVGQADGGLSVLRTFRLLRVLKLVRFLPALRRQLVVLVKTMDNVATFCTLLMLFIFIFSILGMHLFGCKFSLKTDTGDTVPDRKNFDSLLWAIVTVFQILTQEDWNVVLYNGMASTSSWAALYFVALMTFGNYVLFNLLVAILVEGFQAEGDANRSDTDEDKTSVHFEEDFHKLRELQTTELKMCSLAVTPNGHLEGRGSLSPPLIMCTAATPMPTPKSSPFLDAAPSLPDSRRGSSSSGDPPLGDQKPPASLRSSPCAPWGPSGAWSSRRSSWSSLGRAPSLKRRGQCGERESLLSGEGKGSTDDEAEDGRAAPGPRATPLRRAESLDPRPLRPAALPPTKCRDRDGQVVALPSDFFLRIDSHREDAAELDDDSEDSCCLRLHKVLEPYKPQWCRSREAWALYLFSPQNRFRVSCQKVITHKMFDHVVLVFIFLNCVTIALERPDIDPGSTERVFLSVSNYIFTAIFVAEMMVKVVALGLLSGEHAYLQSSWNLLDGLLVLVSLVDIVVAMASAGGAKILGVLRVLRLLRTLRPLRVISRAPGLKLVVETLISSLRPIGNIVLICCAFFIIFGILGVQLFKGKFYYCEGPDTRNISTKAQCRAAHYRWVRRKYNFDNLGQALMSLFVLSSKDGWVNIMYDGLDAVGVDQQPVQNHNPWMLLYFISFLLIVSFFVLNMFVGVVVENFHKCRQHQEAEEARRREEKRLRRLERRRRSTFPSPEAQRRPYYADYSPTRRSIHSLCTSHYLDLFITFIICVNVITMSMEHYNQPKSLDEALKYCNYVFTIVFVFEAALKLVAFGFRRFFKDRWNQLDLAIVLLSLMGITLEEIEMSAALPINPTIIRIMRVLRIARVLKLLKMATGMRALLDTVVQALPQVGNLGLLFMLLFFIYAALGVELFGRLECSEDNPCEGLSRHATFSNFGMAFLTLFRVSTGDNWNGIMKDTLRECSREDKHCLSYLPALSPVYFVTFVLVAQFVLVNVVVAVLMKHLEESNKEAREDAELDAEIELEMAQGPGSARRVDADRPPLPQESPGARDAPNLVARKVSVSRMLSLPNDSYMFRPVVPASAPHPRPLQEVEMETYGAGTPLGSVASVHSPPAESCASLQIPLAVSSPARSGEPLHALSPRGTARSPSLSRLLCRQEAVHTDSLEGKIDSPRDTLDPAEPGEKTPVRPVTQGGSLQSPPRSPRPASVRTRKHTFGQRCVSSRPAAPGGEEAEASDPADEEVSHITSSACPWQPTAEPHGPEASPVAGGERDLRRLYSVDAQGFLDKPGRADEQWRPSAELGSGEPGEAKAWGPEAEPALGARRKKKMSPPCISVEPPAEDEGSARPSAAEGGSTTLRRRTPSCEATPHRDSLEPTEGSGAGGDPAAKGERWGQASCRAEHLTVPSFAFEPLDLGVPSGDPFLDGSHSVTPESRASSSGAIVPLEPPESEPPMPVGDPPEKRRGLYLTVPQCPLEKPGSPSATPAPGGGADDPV
Chain of Peroxisome proliferator-activated receptor gamma/Nuclear receptor coactivator 2 (P37231 whole entry): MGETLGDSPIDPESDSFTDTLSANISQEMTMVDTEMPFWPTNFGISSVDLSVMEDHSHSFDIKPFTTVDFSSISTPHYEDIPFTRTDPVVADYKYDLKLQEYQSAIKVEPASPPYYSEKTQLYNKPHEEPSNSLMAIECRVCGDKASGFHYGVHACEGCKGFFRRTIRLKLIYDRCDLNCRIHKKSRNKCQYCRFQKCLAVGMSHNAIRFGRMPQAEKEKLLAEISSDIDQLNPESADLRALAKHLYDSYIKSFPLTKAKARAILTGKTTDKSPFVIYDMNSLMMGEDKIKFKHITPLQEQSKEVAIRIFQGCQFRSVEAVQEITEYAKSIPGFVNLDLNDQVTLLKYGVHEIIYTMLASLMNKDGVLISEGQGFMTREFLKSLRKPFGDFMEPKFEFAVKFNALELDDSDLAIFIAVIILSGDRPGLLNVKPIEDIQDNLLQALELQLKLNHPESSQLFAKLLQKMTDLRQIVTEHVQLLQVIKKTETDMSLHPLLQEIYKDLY
Chain of Peroxisome proliferator-activated receptor gamma/Nuclear receptor coactivator 2 (Q15596 whole entry, further chain): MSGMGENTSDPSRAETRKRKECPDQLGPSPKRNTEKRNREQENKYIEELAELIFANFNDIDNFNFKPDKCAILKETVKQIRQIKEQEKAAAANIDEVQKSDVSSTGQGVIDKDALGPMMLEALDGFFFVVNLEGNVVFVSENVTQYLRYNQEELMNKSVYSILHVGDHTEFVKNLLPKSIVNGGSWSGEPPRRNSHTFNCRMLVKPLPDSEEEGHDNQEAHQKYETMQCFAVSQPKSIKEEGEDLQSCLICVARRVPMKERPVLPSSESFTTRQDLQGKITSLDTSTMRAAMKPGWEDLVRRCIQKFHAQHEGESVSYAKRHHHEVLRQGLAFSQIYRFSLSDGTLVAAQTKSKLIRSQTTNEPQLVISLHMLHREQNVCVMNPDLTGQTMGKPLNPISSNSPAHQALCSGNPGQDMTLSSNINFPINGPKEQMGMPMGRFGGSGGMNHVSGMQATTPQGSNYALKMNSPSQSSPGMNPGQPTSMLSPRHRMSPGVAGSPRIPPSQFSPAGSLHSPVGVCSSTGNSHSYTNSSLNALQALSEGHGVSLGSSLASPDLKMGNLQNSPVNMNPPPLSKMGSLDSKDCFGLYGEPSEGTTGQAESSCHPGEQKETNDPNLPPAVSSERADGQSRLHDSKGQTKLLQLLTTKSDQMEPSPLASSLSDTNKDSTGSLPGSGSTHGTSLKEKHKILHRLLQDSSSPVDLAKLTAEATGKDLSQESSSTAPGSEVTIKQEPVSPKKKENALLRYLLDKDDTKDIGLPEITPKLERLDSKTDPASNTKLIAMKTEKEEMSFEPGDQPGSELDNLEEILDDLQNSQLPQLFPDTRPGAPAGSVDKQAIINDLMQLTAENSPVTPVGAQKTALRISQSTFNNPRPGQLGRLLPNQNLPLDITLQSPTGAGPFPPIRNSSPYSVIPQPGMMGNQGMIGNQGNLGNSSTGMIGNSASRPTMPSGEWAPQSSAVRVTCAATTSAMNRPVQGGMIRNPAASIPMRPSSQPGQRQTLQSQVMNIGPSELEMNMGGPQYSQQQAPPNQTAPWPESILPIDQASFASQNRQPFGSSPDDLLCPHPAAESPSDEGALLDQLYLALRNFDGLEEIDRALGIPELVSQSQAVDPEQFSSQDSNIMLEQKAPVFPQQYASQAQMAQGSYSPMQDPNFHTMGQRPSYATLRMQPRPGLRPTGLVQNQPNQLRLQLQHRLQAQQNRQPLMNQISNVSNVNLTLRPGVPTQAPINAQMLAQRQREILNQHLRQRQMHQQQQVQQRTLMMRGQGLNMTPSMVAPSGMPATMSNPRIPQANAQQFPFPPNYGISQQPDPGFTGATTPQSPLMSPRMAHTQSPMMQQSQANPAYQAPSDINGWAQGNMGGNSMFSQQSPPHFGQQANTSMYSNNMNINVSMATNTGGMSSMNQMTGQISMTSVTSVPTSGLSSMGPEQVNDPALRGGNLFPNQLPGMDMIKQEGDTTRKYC
Chain of Cytochrome P450 2D6 (P10635 whole entry): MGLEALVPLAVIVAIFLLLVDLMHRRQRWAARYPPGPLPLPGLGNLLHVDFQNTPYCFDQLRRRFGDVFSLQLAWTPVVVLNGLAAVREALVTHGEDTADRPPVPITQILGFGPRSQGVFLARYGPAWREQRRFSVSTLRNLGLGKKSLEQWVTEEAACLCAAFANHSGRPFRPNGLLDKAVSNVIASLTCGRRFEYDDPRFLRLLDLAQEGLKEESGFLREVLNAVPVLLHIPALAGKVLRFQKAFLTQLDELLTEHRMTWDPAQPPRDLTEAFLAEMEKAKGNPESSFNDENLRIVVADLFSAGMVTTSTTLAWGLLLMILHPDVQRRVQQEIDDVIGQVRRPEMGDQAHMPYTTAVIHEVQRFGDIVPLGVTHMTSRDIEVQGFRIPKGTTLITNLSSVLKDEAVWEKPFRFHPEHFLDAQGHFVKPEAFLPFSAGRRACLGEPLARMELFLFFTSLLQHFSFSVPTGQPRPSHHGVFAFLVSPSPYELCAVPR
Chain of Eukaryotic translation initiation factor 4E (P63073 whole entry): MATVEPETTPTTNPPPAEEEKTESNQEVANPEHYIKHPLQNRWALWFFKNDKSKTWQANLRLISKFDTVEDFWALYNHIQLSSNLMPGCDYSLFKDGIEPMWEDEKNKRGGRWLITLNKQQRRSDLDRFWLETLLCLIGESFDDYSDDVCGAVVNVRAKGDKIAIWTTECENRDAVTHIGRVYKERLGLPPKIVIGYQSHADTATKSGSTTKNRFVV

O=C(OCn1nnc2ccccc2c1=O)c1cn(-c2ccccc2)nc1-c1cccnc1
IC50 [1]: > 50 µM (not active)

N#CCCN1CCN(C(=S)c2ccc(-c3ccc(Cl)cc3)o2)CC1
EC50 [2]: > 79.4 µM (not active)
EC50 [3]: > 79.4 µM (not active)
EC50 [4]: > 79.4 µM (inactive)

COc1ccc(CCN(C(=O)C(F)(F)F)C(C(=O)NC2CCCC2)c2cccs2)cc1 (stereo not drawn)
AC50 [5]: 25.1 µM (inconclusive)
EC50 [6]: > 50 µM (active)

O=C(COc1ccc(Cl)cc1Cl)Nc1nc2n(n1)C(c1ccccc1)CC(=O)N2 (stereo not drawn)
EC50 [7]: 1.98 µM (active)

Cc1cc(Cl)cc(C)c1OCCCCn1ccnc1
IC50 [8]: 15.5 µM (active)
CC50 [9]: 38.2 µM (active)
EC50 [10]: 3.76 µM (active)

CC(C)(C)c1ccc(-c2nnc(SCC(=O)NC3CC3)o2)cc1
IC50 [11]: > 80 µM (inactive)

Cn1c(=O)cc(Nc2ccccc2)c2c(=O)n(-c3ccccc3)c(=O)n(-c3ccccc3)c21
IC50 [11]: > 80 µM (inactive)

CCOC(=O)c1[nH]c(C)c(C(=O)Nc2cc(OC)ccc2OC)c1C
IC50 [12]: > 80 µM (inactive)

C=C(C)[C@@H]1CC[C@]2(C(=O)O)CC[C@]3(C)[C@H](CC[C@@H]4[C@@]5(C)CCC(=O)C(C)(C)[C@@H]5CC[C@]43C)[C@@H]12 [BETUNOLIC ACID]
EC50 [13]: 2.88 µM (active)
IC50 [11]: > 80 µM (inactive)
EC50 [14]: 1.68 µM (active)

Cc1cc(-c2ccc(S(=O)(=O)N(C)c3ccc(C)c(C)c3)s2)on1
IC50 [12]: > 80 µM (inactive)

Cc1ccn(CC(=O)NC2CCCN(Cc3ccc(CC(C)C)cc3)C2)n1 (stereo not drawn)
EC50 [10]: 1.68 µM (active)

CCN1CCN(c2nc3ccccc3nc2C(C#N)S(=O)(=O)c2ccc(C)cc2)CC1 (stereo not drawn)
EC50 [6]: > 50 µM (active)

COc1ccc(C(=O)C2CCCN(Cc3ccc(Sc4nncn4C)o3)C2)cc1F (stereo not drawn)
EC50 [10]: 3.35 µM (active)

O=C(Oc1cccc2cccnc12)c1ccc(Br)o1
EC50 [15]: > 20 µM (not active)
EC50 [16]: > 260 µM (inactive)
EC50 [17]: 13.9 µM (active)

c1cnc2nc(-c3ccc4c(c3)OCO4)cn2c1
EC50 [6]: > 50 µM (active)

CCn1c(=O)cc(SCC(=O)N2CCN(c3ccccc3OC)CC2)c2ccccc21
EC50 [2]: > 79.4 µM (not active)
EC50 [3]: > 79.4 µM (not active)
EC50 [4]: > 79.4 µM (inactive)

Cc1ccc(C2=CC(c3ccc(N(C)C)cc3)n3nnnc3N2)cc1 (stereo not drawn)
EC50 [15]: 0.21 µM (active)
EC50 [18]: > 99 µM (inactive)
AC50 [19]: 6.88 µM (active)
EC50 [20]: > 99 µM (inactive)
EC50 [17]: 0.09 µM (active)

CSc1nccc(-c2nn(-c3ccc(C)cc3)ccc2=O)n1
IC50 [12]: > 80 µM (inactive)

Cc1cc(CSc2ccccc2)ccc1NC(=O)c1cccc([N+](=O)[O-])c1
IC50 [21]: > 64 µM (inactive)

COc1nnc(-c2ccc(C)c(S(=O)(=O)NCCO)c2)c2ccccc12
IC50 [1]: > 50 µM (not active)
IC50 [22]: > 79 µM (inactive)

O=C(CCc1ccccc1)NNC(=S)NC(=O)c1ccc(Cl)cc1
EC50 [13]: 6.45 µM (active)
EC50 [23]: 2.16 µM (active)
EC50 [14]: 0.335 µM (active)
EC50 [24]: > 150 µM (inconclusive)
EC50 [10]: 5.31 µM (active)

CCOc1ccc2ccccc2c1C(=O)N[C@@H]1C(=O)N2[C@@H]1SC(C)(C)[C@@H]2C(=O)O [NAFCILLIN SODIUM]
IC50 [22]: > 79 µM (inactive)
EC50 [6]: > 50 µM (active)

CC(C)(C)n1nnnc1C(c1cccs1)N1CCCc2ccccc21 (stereo not drawn)
EC50 [7]: 8.88 µM (active)

C=CCn1c(SC(C)C(=O)NCCC2=CCCCC2)nc2ccccc2c1=O (stereo not drawn)
EC50 [7]: 3.01 µM (active)

COc1cc(C)c(S(=O)(=O)NCc2ccc3c(c2)OCO3)cc1C
IC50 [1]: > 50 µM (not active)

COc1cc(-c2cc(=O)c3c(O)c(OC)c(OC)c(OC)c3o2)cc(OC)c1OC [GARDENIN]
IC50 [11]: > 80 µM (inactive)
AC50 [25]: 3.16 µM (inconclusive)
